Reference: patent US20040006236A1, “Diaminopropionic acid derivatives” (priority 1999, published 2004)
Counter-ions that a name gives are not always drawn. Like-named read-outs stand apart in the source and are kept apart here.

Experiments:
[1] = tested on: T lymphocyte proliferation (C57BI/6 spleen cells with irradiated BALB/c spleen cells); test: Mixed lymphocyte reaction (MLR), one-way; format: cell-based, mice; settings: read-out: MLR IC50
From the text: Admixture of murine spleen cells from two different inbred strains of mice induces proliferation of T lymphocytes. The magnitude of T cell proliferation depends on the extent of disparity in the major histocompatibility antigens between the two strains. Splenic T lymphocytes from both strains proliferate due to alloantigen recognition, a process for which the interaction of ICAM-1 on antigen-presenting cells with LFA-1 on lymphocytes is necessary. The ability of antagonists to inhibit T lymphocyte proliferation following recognition of alloantigens was assessed in a one-way MLR, where cells from one strain were irradiated to permit measurement of the proliferative response of cells from the other strain. Spleen cells were washed three times in tissue culture medium (TCM; see below). […] One hundred microliters of serial dilutions of antagonists or TCM were added to the spleen cell mixture. The total volume in each well was 200 μL. TCM was RPMI1640 containing 10% heat-inactivated fetal bovine serum, […] L-glutamine, 100 Units/ml each of penicillin and streptomycin and 5×10^−5 M 2-mercaptoethanol. Dilutions of antagonists were prepared in TCM. Plates were incubated in 5% CO2 for 3 days. On the third day, 0.5 μCi of tritiated thymidine (10 μCi/mL) was added to all the wells. Cells were harvested 6 h later on a 96-well plate harvester and the amount of tritiated thymidine incorporated was assessed in a liquid scintillation counter.

[2] = molecular target: T1, LFA-1 binding to immobilized ICAM-1 (Homo sapiens, UniProt P05107+P20701); test: LFA-1/ICAM-1 protein-protein assay (solid-phase ELISA); settings: read-out: LFA-1/ICAM-1 Protein-Protein Assay IC50
T1 construct: made in house; host or cells: transfected 293 cells (LFA-1)
T1 sequence (P20701 26-1170): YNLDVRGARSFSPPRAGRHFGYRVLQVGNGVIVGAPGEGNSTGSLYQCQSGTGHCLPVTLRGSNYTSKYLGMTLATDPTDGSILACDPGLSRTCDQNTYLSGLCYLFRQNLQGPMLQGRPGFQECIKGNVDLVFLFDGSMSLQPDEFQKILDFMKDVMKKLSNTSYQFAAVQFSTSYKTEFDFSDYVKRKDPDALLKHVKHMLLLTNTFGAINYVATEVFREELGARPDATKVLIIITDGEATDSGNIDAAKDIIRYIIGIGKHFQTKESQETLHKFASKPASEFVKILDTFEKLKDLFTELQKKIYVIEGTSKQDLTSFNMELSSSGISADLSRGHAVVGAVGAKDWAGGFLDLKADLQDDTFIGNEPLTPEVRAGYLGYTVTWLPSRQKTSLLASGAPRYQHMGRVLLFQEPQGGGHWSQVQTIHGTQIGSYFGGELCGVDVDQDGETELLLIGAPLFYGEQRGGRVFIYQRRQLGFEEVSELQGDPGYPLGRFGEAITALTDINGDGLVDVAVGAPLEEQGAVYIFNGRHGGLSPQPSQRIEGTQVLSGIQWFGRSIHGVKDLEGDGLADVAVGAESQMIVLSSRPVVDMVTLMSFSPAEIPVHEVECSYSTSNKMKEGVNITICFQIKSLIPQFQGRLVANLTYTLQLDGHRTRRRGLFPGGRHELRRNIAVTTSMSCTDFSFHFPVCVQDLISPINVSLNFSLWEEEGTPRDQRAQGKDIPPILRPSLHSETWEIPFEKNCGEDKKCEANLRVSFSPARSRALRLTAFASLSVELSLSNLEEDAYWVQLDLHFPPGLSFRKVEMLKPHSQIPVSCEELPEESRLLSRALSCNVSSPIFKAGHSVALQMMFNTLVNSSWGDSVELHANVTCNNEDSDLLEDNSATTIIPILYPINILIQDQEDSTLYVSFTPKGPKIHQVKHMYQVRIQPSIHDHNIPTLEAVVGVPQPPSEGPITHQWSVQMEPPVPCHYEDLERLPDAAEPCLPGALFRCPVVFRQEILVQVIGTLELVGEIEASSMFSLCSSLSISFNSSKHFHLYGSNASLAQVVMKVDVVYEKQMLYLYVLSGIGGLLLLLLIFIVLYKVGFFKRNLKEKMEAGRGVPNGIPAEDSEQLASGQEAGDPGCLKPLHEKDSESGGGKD
T1 sequence (P05107 23-769): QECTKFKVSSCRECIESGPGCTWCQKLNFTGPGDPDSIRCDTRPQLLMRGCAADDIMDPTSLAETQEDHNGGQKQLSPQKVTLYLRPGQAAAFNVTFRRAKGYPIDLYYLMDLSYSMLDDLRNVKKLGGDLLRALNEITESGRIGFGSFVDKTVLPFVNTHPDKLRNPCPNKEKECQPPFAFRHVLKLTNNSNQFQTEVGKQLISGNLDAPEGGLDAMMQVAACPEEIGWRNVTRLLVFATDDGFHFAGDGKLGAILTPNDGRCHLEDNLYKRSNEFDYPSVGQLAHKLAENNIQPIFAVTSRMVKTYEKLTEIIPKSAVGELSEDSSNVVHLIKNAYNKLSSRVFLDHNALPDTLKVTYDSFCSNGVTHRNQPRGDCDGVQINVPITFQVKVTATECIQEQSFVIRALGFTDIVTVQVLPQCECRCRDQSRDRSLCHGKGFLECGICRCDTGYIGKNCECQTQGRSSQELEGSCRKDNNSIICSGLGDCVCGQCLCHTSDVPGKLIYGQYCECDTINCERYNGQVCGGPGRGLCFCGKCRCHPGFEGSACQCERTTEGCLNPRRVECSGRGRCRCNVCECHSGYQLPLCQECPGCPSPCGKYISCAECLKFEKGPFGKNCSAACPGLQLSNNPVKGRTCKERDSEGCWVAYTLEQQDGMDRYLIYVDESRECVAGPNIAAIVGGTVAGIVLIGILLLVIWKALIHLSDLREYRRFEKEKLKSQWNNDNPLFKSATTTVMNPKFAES
Method: (a) LFA-1/ICAM-1 screening test: LFA-1/ICAM-1 antagonist activity, defined as the ability of compounds of the invention to block LFA-1 binding to immobilized ICAM-1, was quantitated using a solid-phase ELISA.
(§1) Typically, fusion protein consisting of the entire extracellular domain of human ICAM-1 and the Fc domain of human IgG (5dICAM-Ig) was coated onto 96-well microtiter plates (0.15 μg in 100 μL PBS) overnight at 4° C. The plates were then blocked with 150 μL of 1% BSA/1 mM MnCl2/0.14 M NaCl/20 mM HEPES, pH 7.2 for 1 h at 37° C. and washed 3 times (150 μL each) with Wash Buffer (50 mM Tris, pH 7.4/100 mM NaCl/1 mM MnCl2/0.05% Tween 20). Stock solutions (100 μM in 100% DMSO) of test compounds were diluted 50 fold with 150 μL of Binding Buffer (0.05% BSA/0.05% Tween 20/1 mM MnCl2/0.14 M NaCl/20 mM HEPES, pH 7.2) plus 10% DMSO. […] Fifty μL per well of each dilution was added to the ICAM-1 coated plates, followed by 50 μL per well of membrane-bound LFA-1 (280 ng/mL in Binding Buffer) derived from transfected 293 cells. The plates were shaken vigorously for 1 min (room temperature) and gently for 2 h (37° C.). After incubation, the plates were washed 3 times (150 μL each) with Wash Buffer. Mouse anti-human integrin β2 monoclonal antibody was added (100 μL/well, 1 μg/mL in Binding Buffer) and allowed to incubate for 1 h (37° C.) with gentle agitation. The plates were then washed 3 times with Wash Buffer. HRP-conjugated goat anti-mouse IgG (100 μL/well, 1:1500 dilution in Binding Buffer) was added to each well, followed by incubation for 1 h (37° C.), and concluded by three washes (150 μL each) with Wash Buffer. TMB solution (100 μL per well) was added for color development (10 min). The reaction was stopped by the addition of 100 μL of 1 M H3PO4 to each well. The plates were then read at 450 nm. The inhibitory activities of test compounds were determined by the IC50s.
as §1, with “LFA-1/ICAM-1 antagonist activity, defined as the ability to block LFA-1 binding to immobilized ICAM-1, was quantitated using a solid-phase ELISA. Typically,” for “Typically,”, “(0.05 %” for “(0.05%”, “nm.” for “nm. The inhibitory activities of test compounds were determined by the IC50s.”

[3] = molecular target: T2, ICAM-1 binding to immobilized Mac-1 (Homo sapiens, UniProt P05107+P11215); test: Mac-1/ICAM-1 screening assay (solid-phase ELISA); settings: read-out: Mac-1/ICAM-1 Protein-Protein Assay IC50
T2 construct: made in house; host or cells: transfected 293 cells (Mac-1)
T2 sequence (P05107 23-769, other chains not shown): as the sequence (P05107 23-769) above
Method: (b) Mac-1/ICAM-1 screening test: Mac-1/ICAM-1 antagonist activity, defined as the ability to compete with ICAM-1 binding to immobilized Mac-1, was quantitated by a solid-phase ELISA.
(§2) Membrane-bound Mac-1 derived from transfected 293 cells was coated onto 96-well microtiter plates (50 μL/well, 3 μg/mL Mac-1 in 20 mM Hepes, pH 7.2/0.14 M NaCl/1 mM MnCl2) overnight at 4° C. The plates were blocked with 100 μL/well of 0.5% BSA in 20 mM Hepes, pH 7.2/0.14 M NaCl/1 mM MnCl2 at 37° C. for 1 h and washed 3 times (120 μL each) with Binding Buffer (20 mM Hepes, pH 7.2/0.14 M NaCl/1 mM MnCl2/0.05% Tween 20). Test compounds were dissolved in 100% DMSO and diluted 1:50 in Binding Buffer plus 10% DMSO. A series of 1:4 dilutions were performed for each compound (concentration range, 0.12 nM-20 μM). Each dilution (25 μL/well) was added to the plates, followed by 25 μL/well of 5 dICAM-Ig (40 μg/mL in Binding Buffer). The plates were shaken vigorously for 1 min (room temperature), followed by gentle agitation for 2 h (37° C.), and washed with Binding Buffer (3 times, 120 μL each). HRP-conjugated goat anti-human IgG(Fc-specific) antibody (0.125 μg/mL in Binding Buffer plus 0.05% BSA) was added to each well (50 μL/well), followed by incubation for 1 h at 37° C. The plates were then washed 3 times with Binding Buffer (120 μL each). TMB solution (100 μL/well) was added to each well for color development for 10 min. The reaction was stopped with 1 M H3PO4 (100 μL/well) and the plates were read at 450 nm. The inhibitory activities of test compounds were determined by the IC50s.
as §2, with “Mac-1/ICAM-1 antagonist activity, defined as the ability to compete with ICAM-1 binding to immobilized Mac-1, was quantitated by a solid-phase ELISA. Membrane-bound” for “Membrane-bound”, “5dICAM-Ig” for “5 dICAM-Ig”, “nm.” for “nm. The inhibitory activities of test compounds were determined by the IC50s.”

Row | SMILES | IC50 ([1]; Mus musculus, T-lymphocyte) | IC50 [2] | IC50 [3] | IC50 ([1]; sodium salt)
1 | N[C@H](Cc1ccc(O)cc1)C(=O)NC[C@H](NC(=O)c1ccc(C(=O)NCc2cccc(O)c2)cc1Cl)C(=O)O [Example 274] | 3700 nM | 4.4 nM |  | 
2 | COc1ccc2nc3ccc(C(=O)NC[C@H](NC(=O)c4ccc(C(=O)NCc5cccc(O)c5)cc4Cl)C(=O)O)cn3c(=O)c2c1 [Example 191] |  | 2.2 nM | 130 nM | 
3 | O=C(N[C@@H](CNC(=O)C1CC1)C(=O)O)c1c(Cl)cccc1Cl [Example 210] |  | 36 nM |  | 
4 | O=C(/C=C/c1cccs1)NC[C@H](NC(=O)c1c(Cl)cccc1Cl)C(=O)O [Example 218] |  | 33 nM |  | 
5 | O=C(NC[C@H](NC(=O)c1c(Cl)cccc1Cl)C(=O)O)c1ccc2[nH]ccc2c1 [Example 225] |  | 31 nM |  | 
6 | COc1cccc(C(=O)NC[C@H](NC(=O)c2c(Cl)cccc2Cl)C(=O)O)c1 [Example 221] |  | 24 nM |  | 
7 | Nc1cccc(C(=O)NC[C@H](NC(=O)c2ccc(C(=O)NCc3cccc(O)c3)cc2Cl)C(=O)O)c1 [Example 288] | 210 nM | 1.2 nM |  | 
8 | O=C(N[C@@H](CNC(=O)C1CCCC1)C(=O)O)c1c(Cl)cccc1Cl [Example 213] |  | 31 nM |  | 
9 | CCCCS(=O)(=O)NC[C@H](NC(=O)c1ccc(C(=O)N[C@H](C)c2cccc3ccccc23)cc1Cl)C(=O)O [Example 361, 3-(1-butanesulfonylamino)-N-[2-chloro-4-[[[(1R)-1-(1-naphthalenyl)ethyl]amino]carbonyl]benzoyl]-L-alanine] | 21500 nM | 42 nM |  | 
10 | COc1cc(C(=O)NC[C@H](NC(=O)c2ccc(C(=O)NCc3cccc(O)c3)cc2Cl)C(=O)O)nc2ccccc12 [Example 182] |  | 15 nM |  | 
11 | Cc1cccc(C(=O)NC[C@H](NC(=O)c2c(Cl)cccc2Cl)C(=O)O)n1 [Example 227] | 8550 nM | 21 nM |  | 
12 | O=C(Cc1ccc([N+](=O)[O-])cc1)NC[C@H](NC(=O)c1c(Cl)cccc1Cl)C(=O)O [Example 205] |  | 31 nM |  | 
13 | O=C(Cc1ccccc1)NC[C@H](NC(=O)c1c(Cl)cccc1Cl)C(=O)O [Example 204] |  | 42 nM |  | 
14 | O=C(NCc1cccc(O)c1)c1ccc(C(=O)N[C@@H](CNC(=O)c2ccccc2)C(=O)O)c(Cl)c1 [Example 304, 3-benzoylamino-N-[2-chloro-4-[[[(3-hydroxyphenyl)methyl]amino]carbonyl]benzoyl]-L-alanine, sodium salt] |  | 1.1 nM |  | 270 nM
15 | O=C(NCc1ccc(C(=O)N[C@@H](CNC(=O)c2ccccc2)C(=O)O)c(Cl)c1)c1cnc2ccccc2c1 [Example 370] | 11000 nM | 40 nM |  | 
16 | Nc1cccc(C(=O)NCc2ccc(C(=O)N[C@@H](CNC(=O)c3ccccc3)C(=O)O)c(Cl)c2)c1 [Example 367] | 17000 nM | 41 nM |  | 
17 | O=C(N[C@@H](CNC(=O)C1CCC1)C(=O)O)c1c(Cl)cccc1Cl [Example 212] |  | 36 nM |  | 
18 | O=C1CC[C@@H](C(=O)NC[C@H](NC(=O)c2c(Cl)cccc2Cl)C(=O)O)O1 [Example 208] |  | 23 nM |  | 
19 | N[C@@H](CO)C(=O)NC[C@H](NC(=O)c1ccc(C(=O)NCc2cccc(O)c2)cc1Cl)C(=O)O [Example 292] | 3650 nM | 5.4 nM |  | 
20 | N[C@H](CC(=O)O)C(=O)NC[C@H](NC(=O)c1ccc(C(=O)NCc2cccc(O)c2)cc1Cl)C(=O)O [Example 275] | 540 nM | 2.2 nM |  | 
21 | O=C(N[C@@H](CNC(=O)C1CCCCC1)C(=O)O)c1c(Cl)cccc1Cl [Example 215] |  | 35 nM |  | 
